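In this assay, cells in 96-well plates receive the compound at five concentrations for 48 hours. Endpoints are linearly interpolated between the surrounding concentrations. GI50 marks 50% less growth.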 The source made the active and inactive calls. No stated cut-off is given here; in the data, active = GI50 up to about 1.1 µM and inactive = higher.
Legend:
Assay in all cases: NCI-60 cell line screen, 48 h
XF498 = system: XF498
OVCAR-5 = system: OVCAR-5
NCI-H23 = system: NCI-H23
UACC-62 = system: UACC-62
SNB-75 = system: SNB-75
HOP-62 = system: HOP-62
DMS-114 = system: DMS-114
786-0 = system: 786-0
DMS-273 = system: DMS-273
OVCAR-3 = system: OVCAR-3
U-251 = system: U-251
ACHN = system: ACHN
RPMI-8226 = system: RPMI-8226
SF-295 = system: SF-295
LOX IMVI = system: LOX IMVI
COLO 205 = system: COLO 205
HOP-92 = system: HOP-92
NCI-H522 = system: NCI-H522
SNB-78 = system: SNB-78
UACC-257 = system: UACC-257
MOLT-4 = system: MOLT-4
SF-268 = system: SF-268
KM-20L2 = system: KM-20L2
M19-MEL = system: M19-MEL
A549 = system: A549
RXF 631 = system: RXF 631
KM12 = system: KM12
K562 = system: K562
SK-MEL-5 = system: SK-MEL-5
HCC 2998 = system: HCC 2998
HL-60 = system: HL-60
NCI-H226 = system: NCI-H226
SNB-19 = system: SNB-19
HCT-116 = system: HCT-116
SW-620 = system: SW-620
HOP-18 = system: HOP-18
CAKI-1 = system: CAKI-1
UO-31 = system: UO-31
RXF 393 = system: RXF 393
SR = system: SR
LXFL 529 = system: LXFL 529
HT-29 = system: HT-29
SK-MEL-28 = system: SK-MEL-28
SF-539 = system: SF-539
SK-MEL-2 = system: SK-MEL-2
CCRF-CEM = system: CCRF-CEM
NCI-H460 = system: NCI-H460
OVCAR-4 = system: OVCAR-4
M14 = system: M14
SK-OV-3 = system: SK-OV-3
SN12C = system: SN12C
IGROV-1 = system: IGROV-1
TK-10 = system: TK-10
OVCAR-8 = system: OVCAR-8
EKVX = system: EKVX
Malme-3M = system: Malme-3M
A498 = system: A498
DLD-1 = system: DLD-1
HCT-15 = system: HCT-15

Measured: GI50

CCCCCCCCCCCC(=O)C1=C(O)CC(O)CC1=O (stereo not drawn)
inactive: XF498 > 100 µM | OVCAR-5 68.7 µM | NCI-H23 > 100 µM | UACC-62 95.1 µM | SNB-75 > 100 µM | HOP-62 > 100 µM | DMS-114 64.3 µM | 786-0 > 100 µM | DMS-273 84.3 µM | OVCAR-3 82.6 µM | U-251 91.8 µM | ACHN 99.8 µM | RPMI-8226 87.3 µM | SF-295 84.1 µM | LOX IMVI 54.6 µM | COLO 205 > 100 µM | HOP-92 > 100 µM | NCI-H522 > 100 µM | SNB-78 > 100 µM | UACC-257 > 100 µM | MOLT-4 88.1 µM | SF-268 > 100 µM | KM-20L2 > 100 µM | M19-MEL > 100 µM | A549 59.4 µM | RXF 631 > 100 µM | KM12 59.4 µM | K562 42.2 µM | SK-MEL-5 > 100 µM | HCC 2998 > 100 µM | HL-60 23.1 µM | NCI-H226 68.7 µM | SNB-19 > 100 µM | HCT-116 > 100 µM | SW-620 > 100 µM | HOP-18 > 100 µM | CAKI-1 > 100 µM | UO-31 64.4 µM | RXF 393 > 100 µM | SR > 100 µM | LXFL 529 83.6 µM | HT-29 > 100 µM | SK-MEL-28 > 100 µM | SF-539 > 100 µM | SK-MEL-2 > 100 µM | CCRF-CEM 62.2 µM | NCI-H460 > 100 µM | OVCAR-4 > 100 µM | M14 > 100 µM | SK-OV-3 > 100 µM | SN12C > 100 µM | IGROV-1 > 100 µM | TK-10 > 100 µM | OVCAR-8 74.1 µM | EKVX > 100 µM

O=S(O)CCCCCSSCCCCSSCCCCCS(=O)O
inactive: XF498 46.8 µM | OVCAR-5 > 100 µM | NCI-H23 > 100 µM | UACC-62 > 100 µM | SNB-75 30.8 µM | HOP-62 > 100 µM | DMS-114 > 100 µM | 786-0 > 100 µM | DMS-273 > 100 µM | OVCAR-3 > 100 µM | U-251 > 100 µM | ACHN > 100 µM | RPMI-8226 97.5 µM | SF-295 > 100 µM | LOX IMVI > 100 µM | COLO 205 > 100 µM | HOP-92 > 100 µM | Malme-3M 27.7 µM | NCI-H522 64.9 µM | SNB-78 > 100 µM | A498 > 100 µM | UACC-257 > 100 µM | MOLT-4 33.8 µM | SF-268 > 100 µM | KM-20L2 > 100 µM | M19-MEL > 100 µM | A549 > 100 µM | RXF 631 > 100 µM | KM12 > 100 µM | K562 48.1 µM | SK-MEL-5 > 100 µM | SNB-19 > 100 µM | DLD-1 > 100 µM | SW-620 > 100 µM | HOP-18 > 100 µM | CAKI-1 > 100 µM | UO-31 85.3 µM | RXF 393 > 100 µM | LXFL 529 79.6 µM | HT-29 > 100 µM | SK-MEL-28 > 100 µM | SF-539 > 100 µM | SK-MEL-2 > 100 µM | CCRF-CEM 41.2 µM | NCI-H460 > 100 µM | OVCAR-4 > 100 µM | M14 > 100 µM | SK-OV-3 > 100 µM | SN12C > 100 µM | IGROV-1 > 100 µM | TK-10 > 100 µM | OVCAR-8 > 100 µM | EKVX > 100 µM
> 100 µM: HCT-15

CC(=O)CC(N)=O
> 100 µM: HCT-15
inactive: XF498 > 100 µM | OVCAR-5 > 100 µM | NCI-H23 > 100 µM | UACC-62 > 100 µM | SNB-75 > 100 µM | HOP-62 > 100 µM | DMS-114 > 100 µM | 786-0 > 100 µM | DMS-273 > 100 µM | OVCAR-3 > 100 µM | U-251 > 100 µM | ACHN > 100 µM | RPMI-8226 > 100 µM | SF-295 > 100 µM | COLO 205 > 100 µM | HOP-92 > 100 µM | Malme-3M > 100 µM | NCI-H522 > 100 µM | SNB-78 > 100 µM | A498 > 100 µM | UACC-257 > 100 µM | MOLT-4 > 100 µM | SF-268 > 100 µM | KM-20L2 > 100 µM | M19-MEL > 100 µM | A549 > 100 µM | RXF 631 > 100 µM | KM12 > 100 µM | K562 > 100 µM | SK-MEL-5 > 100 µM | HCC 2998 > 100 µM | HL-60 > 100 µM | NCI-H226 > 100 µM | SNB-19 > 100 µM | DLD-1 > 100 µM | HCT-116 > 100 µM | SW-620 > 100 µM | HOP-18 > 100 µM | CAKI-1 > 100 µM | UO-31 > 100 µM | RXF 393 > 100 µM | SR > 100 µM | LXFL 529 > 100 µM | HT-29 > 100 µM | SK-MEL-28 > 100 µM | SF-539 > 100 µM | SK-MEL-2 > 100 µM | CCRF-CEM > 100 µM | NCI-H460 > 100 µM | OVCAR-4 > 100 µM | M14 > 100 µM | SK-OV-3 > 100 µM | SN12C > 100 µM | IGROV-1 > 100 µM | TK-10 > 100 µM | OVCAR-8 > 100 µM | EKVX > 100 µM

O=C1c2ccccc2C(=O)C12CCc1ccccc12
inactive: XF498 > 100 µM | NCI-H23 > 100 µM | UACC-62 > 100 µM | SNB-75 40.3 µM | HOP-62 > 100 µM | DMS-114 > 100 µM | 786-0 > 100 µM | DMS-273 > 100 µM | OVCAR-3 > 100 µM | U-251 > 100 µM | ACHN > 100 µM | SF-295 > 100 µM | LOX IMVI > 100 µM | COLO 205 > 100 µM | HOP-92 > 100 µM | Malme-3M > 100 µM | SNB-78 > 100 µM | MOLT-4 4.18 µM | SF-268 > 100 µM | KM-20L2 > 100 µM | M19-MEL > 100 µM | A549 > 100 µM | RXF 631 > 100 µM | K562 83.4 µM | HCC 2998 > 100 µM | HL-60 23.6 µM | DLD-1 > 100 µM | SW-620 > 100 µM | HOP-18 > 100 µM | CAKI-1 > 100 µM | UO-31 > 100 µM | RXF 393 > 100 µM | LXFL 529 > 100 µM | HT-29 > 100 µM | SK-MEL-28 > 100 µM | CCRF-CEM > 100 µM | NCI-H460 > 100 µM | OVCAR-4 > 100 µM | M14 > 100 µM | SK-OV-3 > 100 µM | SN12C > 100 µM | IGROV-1 > 100 µM | TK-10 > 100 µM | OVCAR-8 > 100 µM | EKVX > 100 µM
> 100 µM: HCT-15
